Assay results as given in the NIST ThermoML archive (doi:10.1021/je200811n).
± gives the expanded uncertainty stated by the source.

Details: Hot wire method

C=C(F)C(F)(F)F [2,3,3,3-tetrafluoro-1-propene]
Details | thermal conductivity [W/m/K]
241.92 K, 6085 kPa, Liquid | 0.08525 ± 0.00094
241.92 K, 10976 kPa, Liquid | 0.08707 ± 0.00096
241.93 K, 15764 kPa, Liquid | 0.08965 ± 0.00099
241.94 K, 69 kPa, Gas | 0.00942 ± 0.00033
241.95 K, 77 kPa, Gas | 0.00944 ± 0.00033
241.95 K, 20987 kPa, Liquid | 0.09158 ± 0.001
241.97 K, 86 kPa, Gas | 0.00944 ± 0.00033
242 K, 880 kPa, Liquid | 0.08218 ± 0.00091
242.01 K, 6088 kPa, Liquid | 0.08496 ± 0.00093
242.01 K, 10981 kPa, Liquid | 0.08718 ± 0.00096
242.02 K, 15753 kPa, Liquid | 0.08918 ± 0.00098
242.19 K, 69 kPa, Gas | 0.00931 ± 0.00033
242.2 K, 78 kPa, Gas | 0.00934 ± 0.00033
242.22 K, 87 kPa, Gas | 0.00935 ± 0.00033
242.34 K, 883 kPa, Liquid | 0.08243 ± 0.00091
242.34 K, 10985 kPa, Liquid | 0.08732 ± 0.00096
242.34 K, 15757 kPa, Liquid | 0.08916 ± 0.00098
242.35 K, 6087 kPa, Liquid | 0.08514 ± 0.00093
242.35 K, 20980 kPa, Liquid | 0.09106 ± 0.001
242.35 K, 21022 kPa, Liquid | 0.09102 ± 0.00099
242.46 K, 15754 kPa, Liquid | 0.08876 ± 0.00097
242.47 K, 69 kPa, Gas | 0.00926 ± 0.00033
242.47 K, 78 kPa, Gas | 0.00926 ± 0.00033
242.47 K, 886 kPa, Liquid | 0.08219 ± 0.0009
242.47 K, 6087 kPa, Liquid | 0.08483 ± 0.00093
242.47 K, 10989 kPa, Liquid | 0.08709 ± 0.00095
242.5 K, 87 kPa, Gas | 0.00928 ± 0.00033
242.52 K, 87 kPa, Gas | 0.00925 ± 0.00032
242.54 K, 68 kPa, Gas | 0.00927 ± 0.00033
242.54 K, 76 kPa, Gas | 0.00929 ± 0.00033
242.8 K, 20976 kPa, Liquid | 0.09105 ± 0.00099
242.81 K, 10986 kPa, Liquid | 0.08711 ± 0.00095
242.81 K, 15750 kPa, Liquid | 0.08896 ± 0.00097
242.81 K, 21021 kPa, Liquid | 0.09106 ± 0.001
242.83 K, 6086 kPa, Liquid | 0.08481 ± 0.00093
242.85 K, 891 kPa, Liquid | 0.08226 ± 0.0009
242.88 K, 87 kPa, Gas | 0.00926 ± 0.00033
242.9 K, 77 kPa, Gas | 0.00929 ± 0.00033
242.91 K, 68 kPa, Gas | 0.0093 ± 0.00033
242.94 K, 15756 kPa, Liquid | 0.08889 ± 0.00097
242.96 K, 10985 kPa, Liquid | 0.08695 ± 0.00095
242.98 K, 6086 kPa, Liquid | 0.08445 ± 0.00093
243 K, 892 kPa, Liquid | 0.082 ± 0.0009
243.28 K, 86 kPa, Gas | 0.00928 ± 0.00033
243.29 K, 21014 kPa, Liquid | 0.09132 ± 0.001
243.3 K, 77 kPa, Gas | 0.0093 ± 0.00033
243.3 K, 20966 kPa, Liquid | 0.09102 ± 0.001
243.31 K, 69 kPa, Gas | 0.00933 ± 0.00033
243.32 K, 10987 kPa, Liquid | 0.08693 ± 0.00095
243.32 K, 15749 kPa, Liquid | 0.0891 ± 0.00097
243.35 K, 6084 kPa, Liquid | 0.08459 ± 0.00093
243.38 K, 894 kPa, Liquid | 0.08224 ± 0.0009
243.47 K, 15756 kPa, Liquid | 0.08884 ± 0.00097
243.5 K, 10983 kPa, Liquid | 0.08672 ± 0.00095
243.53 K, 6087 kPa, Liquid | 0.0843 ± 0.00092
243.57 K, 898 kPa, Liquid | 0.08198 ± 0.0009
243.7 K, 86 kPa, Gas | 0.00931 ± 0.00033
243.73 K, 78 kPa, Gas | 0.00931 ± 0.00033
243.75 K, 69 kPa, Gas | 0.00935 ± 0.00033
243.84 K, 20954 kPa, Liquid | 0.09109 ± 0.00099
243.85 K, 21009 kPa, Liquid | 0.09114 ± 0.001
243.87 K, 15753 kPa, Liquid | 0.08885 ± 0.00097
243.9 K, 10980 kPa, Liquid | 0.0868 ± 0.00095
243.94 K, 6082 kPa, Liquid | 0.08438 ± 0.00093
243.98 K, 898 kPa, Liquid | 0.08174 ± 0.0009
244.07 K, 15757 kPa, Liquid | 0.08866 ± 0.00097
244.11 K, 10979 kPa, Liquid | 0.08646 ± 0.00096
244.16 K, 86 kPa, Gas | 0.00935 ± 0.00033
244.16 K, 6088 kPa, Liquid | 0.08418 ± 0.00092
244.2 K, 78 kPa, Gas | 0.00935 ± 0.00033
244.21 K, 900 kPa, Liquid | 0.08153 ± 0.0009
244.22 K, 69 kPa, Gas | 0.00937 ± 0.00033
251.4 K, 100 kPa, Gas | 0.0102 ± 0.00035
251.41 K, 121 kPa, Gas | 0.01025 ± 0.00036
251.42 K, 129 kPa, Gas | 0.01024 ± 0.00036
251.64 K, 100 kPa, Gas | 0.01009 ± 0.00035
251.65 K, 121 kPa, Gas | 0.01014 ± 0.00035
251.66 K, 129 kPa, Gas | 0.01016 ± 0.00035
251.9 K, 121 kPa, Gas | 0.00997 ± 0.00035
251.91 K, 100 kPa, Gas | 0.01002 ± 0.00035
251.91 K, 121 kPa, Gas | 0.01007 ± 0.00035
251.91 K, 130 kPa, Gas | 0.01 ± 0.00035
251.92 K, 129 kPa, Gas | 0.01009 ± 0.00035
251.93 K, 100 kPa, Gas | 0.00998 ± 0.00035
252.23 K, 121 kPa, Gas | 0.00999 ± 0.00035
252.23 K, 130 kPa, Gas | 0.00999 ± 0.00035
252.28 K, 100 kPa, Gas | 0.01003 ± 0.00035
252.6 K, 122 kPa, Gas | 0.01002 ± 0.00035
252.6 K, 130 kPa, Gas | 0.01 ± 0.00035
252.67 K, 100 kPa, Gas | 0.01006 ± 0.00035
253 K, 129 kPa, Gas | 0.01005 ± 0.00035
253.01 K, 121 kPa, Gas | 0.01006 ± 0.00035
253.09 K, 100 kPa, Gas | 0.01007 ± 0.00035
253.43 K, 129 kPa, Gas | 0.01006 ± 0.00035
253.45 K, 121 kPa, Gas | 0.01008 ± 0.00035
253.53 K, 100 kPa, Gas | 0.0101 ± 0.00035
261.38 K, 995 kPa, Liquid | 0.07662 ± 0.00085
261.4 K, 996 kPa, Liquid | 0.07661 ± 0.00085

Liquid
Details | thermal conductivity [W/m/K]
243.15 K | 0.08189 ± 0.00053
253.15 K | 0.07836 ± 0.00052
